Data taken from patent US11415579B2, “Assay for measuring a rate of reaction between a target and a ligand candidate” (Imperial College Innovations Ltd., priority 2016, dated 2022).

What was measured:
[1] = Kinetic thiol consumption assay with model thiol glutathione; assay type: physicochemical; set-up: Rate constant with glutathione (k(GSH)): unit not given here; conditions: for Rate constant with glutathione (k(GSH)): 500 μM ligand, 5 μM thiol, phosphate buffer pH 8; for Rate constant with Glutathione: Protein: Glutathione, cysteine position NA, in h-1
Procedure, shortened: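 First, 5 μM glutathione in degassed phosphate buffer (pH 8) receives immobilized TCEP beads (2% v/v). Then acrylamide is added and plates incubate 1 h at room temperature. Finally, fluorescence (380/470 nm) is normalized and fitted to first-order decay for rate constants.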

[2] = molecular target: T1, human cyclin-dependent kinase 2 (Cdk2) (Homo sapiens, UniProt P24941); assay: Kinetic thiol consumption assay with wild type Cdk2 (C177); assay type: binding; set-up: key to Rate enhancement, Cdk2 WT: k(Cdk2) divided by k(model thiol); Rate constant with Cdk2 (k(Cdk2)): unit not given here; conditions: for Rate constant with Cdk2 (k(Cdk2)): 500 μM ligand, 5 μM thiol, phosphate buffer pH 8; for Rate enhancement, Cdk2 WT: no additional mutations; for Rate constant with Cdk2 WT: Protein: Cdk2, cysteine position WT, in h^-1; for k(Cdk2)/k(Cdk2_mut) rate enhancement: model thiol Cdk2[C177A, F80C, K278C]; for k(Cdk2)/k(GSH) rate enhancement: model thiol glutathione
T1 construct: poly-histidine; made in house; host or cells: E. coli
Procedure, shortened: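 His-tagged human Cdk2 (single surface cysteine C177), expressed in E. coli, or a model thiol at 5 μM in degassed phosphate buffer pH 8 was pre-treated with immobilized TCEP beads (2% v/v) before acrylamide addition. Fluorescence (ex/em 380/470 nm) was read after 1 h at room temperature, normalized to DMSO/thiol-only control and plotted versus time.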

[3] = molecular target: T2, Cdk2[C177A, F80C, K278C] (Homo sapiens, UniProt P24941, C177A/F80C/K278C); assay: Kinetic thiol consumption assay with mutant Cdk2 as model thiol; assay type: binding; set-up: unit not given here; conditions: 500 μM ligand, 5 μM thiol, phosphate buffer pH 8
T2 construct: poly-histidine; made in house; host or cells: E. coli
Procedure, shortened: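 First-order rate constants were derived by exponential-decay fitting of DMSO/thiol-normalized fluorescence (380/470 nm) over time at room temperature. Thiol was 5 μM E. coli-expressed His-tagged Cdk2 mutant C177A/F80C/K278C in degassed pH 8 phosphate buffer containing 2% v/v TCEP beads.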

[4] = molecular target: T3, Cdk2(C177A, F80C) (Homo sapiens, UniProt P24941, C177A/F80C); assay: Kinetic thiol consumption assay with Cdk2 mutant F80C, incl. kobs versus concentration (Kd, k2); assay type: binding; set-up: key to Rate enhancement, Cdk2 F80C: Cdk2 rate constant divided by model-thiol rate constant; conditions: additional mutation C177A; for Rate constant with Cdk2 F80C: Protein: Cdk2, cysteine position F80C, in h^-1
T3 construct: poly-histidine; made in house; host or cells: E. coli
Procedure, shortened: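 His-tagged Cdk2(C177A/F80C) from E. coli or model thiol, 5 μM in degassed phosphate buffer pH 8 with TCEP beads, reacted with acrylamide ligands; fluorescence (ex/em 380/470 nm) normalized to DMSO control and fitted to first-order decay for kobs. Kd and k2 obtained from hyperbolic fit of kobs versus ligand concentration.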

[5] = molecular target: T4, Cdk2(H71C) (C177A) (Homo sapiens, UniProt P24941, C177A/H71C); assay: Kinetic thiol consumption assay with Cdk2 mutant H71C; assay type: binding; set-up: key to Rate enhancement, Cdk2 H71C: rate constant with Cdk2 ÷ rate constant with model thiol (fold); conditions: additional mutation C177A; for Rate constant with Cdk2 H71C: Protein: Cdk2, cysteine position H71C, in h^-1
T4 construct: poly-histidine; made in house; host or cells: E. coli
Procedure, shortened: (§1)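 Read-out is fluorescence at 380/470 nm, taken after 1 h at room temperature and normalized to a DMSO/thiol-only control over time. Thiol (5 μM Cdk2 mutant or model thiol) was in degassed pH 8 phosphate buffer with 2% v/v TCEP beads. Acrylamide rate constants for Cdk2 were divided by those with model thiol.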

[6] = molecular target: T5, Cdk2(S276C) (C177A) (Homo sapiens, UniProt P24941, C177A/S276C); assay: Kinetic thiol consumption assay with Cdk2 mutant S276C; assay type: binding; set-up: key to Rate enhancement, Cdk2 S276C: rate constant with Cdk2 ÷ rate constant with model thiol (fold); conditions: additional mutation C177A; for Rate constant with Cdk2 S276C: Protein: Cdk2, cysteine position S276C, in h^-1
T5 construct: poly-histidine; made in house; host or cells: E. coli
Procedure, shortened: as §1

[7] = molecular target: T6, Cdk2(N272C) (C177A) (Homo sapiens, UniProt P24941, C177A/N272C); assay: Kinetic thiol consumption assay with Cdk2 mutant N272C; assay type: binding; set-up: key to Rate enhancement, Cdk2 N272: rate constant with Cdk2 ÷ rate constant with model thiol (fold); conditions: for Rate enhancement, Cdk2 N272: Cdk2 N272, additional mutation C177A; for Rate constant with Cdk2 N272C: Protein: Cdk2, cysteine position N272C, additional mutation C177A, in h^-1
T6 construct: poly-histidine; made in house; host or cells: E. coli
Procedure, shortened: as §1

[8] = molecular target: T7, Cdk2(T182C) (C177A) (Homo sapiens, UniProt P24941, C177A/T182C); assay: Kinetic thiol consumption assay with Cdk2 mutant T182C; assay type: binding; set-up: key to Rate enhancement, Cdk2 T182C: rate constant with Cdk2 ÷ rate constant with model thiol (fold); conditions: additional mutation C177A; for Rate constant with Cdk2 T182C: Protein: Cdk2, cysteine position T182C, in h^-1
T7 construct: poly-histidine; made in house; host or cells: E. coli
Procedure, shortened: as §1

[9] = molecular target: T8, Cdk2(R122C) (C177A) (Homo sapiens, UniProt P24941, C177A/R122C); assay: Kinetic thiol consumption assay with Cdk2 mutant R122C; assay type: binding; set-up: key to Rate enhancement, Cdk2 R122C: rate constant with Cdk2 ÷ rate constant with model thiol (fold); conditions: additional mutation C177A; for Rate constant with Cdk2 R122C: Protein: Cdk2, cysteine position R122C, in h-1
T8 construct: poly-histidine; made in house; host or cells: E. coli
Procedure, shortened: as §1

[10] = molecular target: T9, Cdk2(S181C) (C177A) (Homo sapiens, UniProt P24941, C177A/S181C); assay: Kinetic thiol consumption assay with Cdk2 mutant S181C; assay type: binding; set-up: key to Rate enhancement, Cdk2 S181C: rate constant with Cdk2 ÷ rate constant with model thiol (fold); conditions: additional mutation C177A; for Rate constant with Cdk2 S181C: Protein: Cdk2, cysteine position S181C, in h^-1
T9 construct: poly-histidine; made in house; host or cells: E. coli
Procedure, shortened: as §1

Compound | Rate constant with Cdk2 (k(Cdk2)) [2] | Rate enhancement, Cdk2 WT [2] | Rate constant with Cdk2 WT [2] | k(Cdk2)/k(Cdk2_mut) rate enhancement [2] | k(Cdk2)/k(GSH) rate enhancement [2] | Rate constant with Cdk2[C177A, F80C, K278C] (k(Cdk2_mut)) [3] | Rate enhancement, Cdk2 F80C [4] | Rate constant with Cdk2 F80C [4] | Rate enhancement, Cdk2 H71C [5] | Rate enhancement, Cdk2 S276C [6] | Rate constant with Cdk2 S276C [6] | Rate enhancement, Cdk2 N272 [7] | Rate enhancement, Cdk2 T182C [8] | Rate constant with Cdk2 T182C [8] | Rate enhancement, Cdk2 R122C [9] | Rate constant with Cdk2 R122C [9] | Rate enhancement, Cdk2 S181C [10] | Rate constant with Cdk2 S181C [10] | Rate constant with glutathione (k(GSH)) [1] | Rate constant with Glutathione [1] | other results
C=CC(=O)N1CCN(c2ccccc2[N+](=O)[O-])CC1 [EL-1134] | 0.0071 | 1.609 | 0.007099 | 0.3385 | 1.597 | 0.02097 | 3.947 | 0.01742 | 4.627 | 1.414 | 0.006242 | 1.119 | 14.4 | 0.06354 | 1.145 | 0.005054 | 1.601 | 0.007065 | 0.00444 | 0.004413 | Rate constant with Cdk2 H71C [5]: 0.02042; Rate constant with Cdk2 N272C [7]: 0.004938
C=CC(=O)NC1c2ccccc2Oc2ccccc21 [CA-171] | 0.00423 | 1.547 | 0.01128 | 3.343 | 1.018 | 0.00127 | 0 |  | 0.4785 | 0.5204 | 0.003794 | 1.029 | 13.51 | 0.09852 | 0.2126 | 0.00155 | 0.8523 | 0.006213 | 0.00416 | 0.00729 | Rate constant with Cdk2 H71C [5]: 0.003488; Rate constant with Cdk2 N272C [7]: 0.007502
C=CC(=O)N1CC2CCN(Cc3ccccc3)C2C1 (stereo not shown) [CA-190] | 0.00347 | 0.248 | 0.003469 | 1.136 | 0.2735 | 0.00305 | 0.3783 | 0.005293 | 0 | 0.3527 | 0.004934 | 0.2334 | 0.8134 | 0.01138 | 0.501 | 0.007009 | 0.2548 | 0.003565 | 0.01268 | 0.01399 | Rate constant with Cdk2 N272C [7]: 0.003265
C=CC(=O)Nc1ccccc1C(=O)c1ccccc1 [EL-1004] | 0.06444 | 3.558 | 0.06444 | 0.3351 | 3.545 | 0.1923 | 22.32 | 0.4042 | 2.131 | 1.281 | 0.02319 | 0.4117 | 7.09 | 0.1284 | 0.9845 | 0.01783 | 0.9371 | 0.01697 | 0.01818 | 0.01811 | Rate constant with Cdk2 H71C [5]: 0.03859; Rate constant with Cdk2 N272C [7]: 0.007455

Further lines, with some results ahead:

Rate constant with Cdk2 (k(Cdk2)) [2] | Rate enhancement, Cdk2 WT [2] | Rate constant with Cdk2 WT [2] | k(Cdk2)/k(Cdk2_mut) rate enhancement [2] | k(Cdk2)/k(GSH) rate enhancement [2] | Rate constant with Cdk2[C177A, F80C, K278C] (k(Cdk2_mut)) [3] | Rate enhancement, Cdk2 F80C [4] | Rate constant with Cdk2 F80C [4] | Rate enhancement, Cdk2 H71C [5] | Rate enhancement, Cdk2 S276C [6] | Rate constant with Cdk2 S276C [6] | Rate enhancement, Cdk2 N272 [7] | Rate enhancement, Cdk2 T182C [8] | Rate constant with Cdk2 T182C [8] | Rate enhancement, Cdk2 R122C [9] | Rate constant with Cdk2 R122C [9] | Rate enhancement, Cdk2 S181C [10] | Rate constant with Cdk2 S181C [10] | Compound | Rate constant with glutathione (k(GSH)) [1] | Rate constant with Glutathione [1] | other results
0.00213 | 0.3281 | 0.002126 | 0.4738 | 0.3244 | 0.00449 | 0.1379 | 0.0008934 | 0.3667 | 0.7301 | 0.004731 | 0.325 | 1.009 | 0.00654 | 0.3573 | 0.002315 | 0.9519 | 0.006168 | C=CC(=O)N1CCCCCC1c1cccnc1 (stereo not shown) [EL-1059] | 0.00656 | 0.00648 | Rate constant with Cdk2 H71C [5]: 0.002376; Rate constant with Cdk2 N272C [7]: 0.002106
0.014 | 4.291 | 0.03792 | 1.746 | 2.839 | 0.00802 | 1.059 | 0.009355 | 0.2745 | 3.446 | 0.03045 | 1.495 | 17.17 | 0.1517 | 0.3144 | 0.002778 | 2.376 | 0.021 | C=CC(=O)NCC1(NC(=O)OC(C)(C)C)CCCCC1 [EL-1143] | 0.00493 | 0.008837 | Rate constant with Cdk2 H71C [5]: 0.002426; Rate constant with Cdk2 N272C [7]: 0.01321
0.00519 | 0.6362 | 0.005124 | 0.1479 | 0.6204 | 0.03512 | 1.711 | 0.01378 | 0.3662 | 0.2841 | 0.002288 | 0 | 2.136 | 0.0172 | 0.6595 | 0.005312 | 0.7584 | 0.006108 | C=CC(=O)Nc1ccccc1-c1ccccc1 [EL-1012] | 0.00837 | 0.008054 | Rate constant with Cdk2 H71C [5]: 0.002949
